Each molecule was assayed against T1, Avi-KRAS G12D (1-169) GppNHp/RAF1 RBD-3xFLAG (52-151) (Homo sapiens, UniProt P01116, G12D) (assay: Raf1-KRAS G12D-GppNHP disruption HTRF assay (Biological Example 1)). Conditions: KRAS G12D-GppNHp/RAF1 RBD HTRF.
T1 construct: Avi-KRAS G12D (1-169)
Type: binding
In short: (§1)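 Using HTRF, the loss of KRAS–effector RAF1 complex was quantified in 50 mM Tris pH 7.5 buffer with 100 mM NaCl and 0.1% BSA. The protein step and reagent step ran 1 h each at room temperature. Activity normalized with DMSO taken as 100%.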

T1 sequence (P01116 1-169 isoform P01116-2 G12D): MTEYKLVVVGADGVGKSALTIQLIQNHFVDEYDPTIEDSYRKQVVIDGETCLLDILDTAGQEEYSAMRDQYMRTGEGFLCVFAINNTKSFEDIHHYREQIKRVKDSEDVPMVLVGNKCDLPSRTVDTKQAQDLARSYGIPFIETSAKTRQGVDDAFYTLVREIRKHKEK

| SMILES | IC50 [nM] |
| --- | --- |
| CCN(c1nc(OC[C@@]23CCCN2C[C@H](F)C3)nc2c(F)c(-c3ccc(F)c4sc(N)c(C#N)c34)c(C(F)(F)F)cc12)[C@@H]1CCN(C(=O)N(C)C)[C@@H]1C [Compound 488] | < 100 |
| CCN(c1nc(OC[C@@]23CCCN2C[C@H](F)C3)nc2c(F)c(-c3ccc(F)c4sc(N)c(C#N)c34)c(C(F)(F)F)cc12)[C@@H]1CCN(C(=O)OC)[C@@H]1C [Compound 489] | 100 to 1000 |
| N#Cc1c(N)sc2c(F)ccc(-c3c(C(F)(F)F)cc4c(N5CCCN6C(=O)CCC6C5)nc(OCC56CCCN5CC(F)C6)nc4c3F)c12 (stereo not drawn) [Compound 490] | 100 to 1000 |
| CCN(c1nc(OC[C@@]23CCCN2C[C@H](F)C3)nc2c(F)c(-c3ccc(F)c4sc(N)c(C#N)c34)c(C(F)(F)F)cc12)[C@H]1CC(=O)N(C2CC2)C1 [Compound 496] | 100 to 1000 |
| CN(C)C(=O)[C@H]1CC[C@@H](N(C)c2nc(OC[C@@]34CCCN3C[C@H](F)C4)nc3c(F)c(-c4ccc(F)c5sc(N)c(C#N)c45)c(C(F)(F)F)cc23)C1 [Compound 497] | 100 to 1000 |
| CN1CC(F)(F)C[C@H]1COc1nc(N2CC3CC(C2)O3)c2cc(C(F)(F)F)c(-c3ccc(F)c4sc(N)c(C#N)c34)c(F)c2n1 [Compound 498] | > 10000 |

Each molecule was assayed against T2, Avi-KRAS G12R (1-169) GppNHp/RAF1 RBD-3xFLAG (52-151) (Homo sapiens, UniProt P01116, G12R) (assay: Raf1-KRAS G12R-GppNHP disruption HTRF assay (Biological Example 1)). Conditions: KRAS G12R-GppNHp/RAF1 RBD HTRF.
T2 construct: Avi-KRAS G12R (1-169)
T2 sequence (P01116 1-169 isoform P01116-2 G12R): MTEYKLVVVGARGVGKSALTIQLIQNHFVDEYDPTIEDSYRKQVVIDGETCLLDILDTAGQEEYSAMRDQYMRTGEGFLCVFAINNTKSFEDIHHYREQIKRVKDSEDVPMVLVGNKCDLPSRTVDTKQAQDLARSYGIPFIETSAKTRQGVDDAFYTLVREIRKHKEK
Type: binding
In short: as §1

| SMILES | IC50 [nM] |
| --- | --- |
| CCN(c1nc(OC[C@@]23CCCN2C[C@H](F)C3)nc2c(F)c(-c3ccc(F)c4sc(N)c(C#N)c34)c(C(F)(F)F)cc12)[C@@H]1CCN(C(=O)N(C)C)[C@@H]1C [Compound 488] | < 100 |
| CCN(c1nc(OC[C@@]23CCCN2C[C@H](F)C3)nc2c(F)c(-c3ccc(F)c4sc(N)c(C#N)c34)c(C(F)(F)F)cc12)[C@@H]1CCN(C(=O)OC)[C@@H]1C [Compound 489] | 100 to 1000 |
| N#Cc1c(N)sc2c(F)ccc(-c3c(C(F)(F)F)cc4c(N5CCCN6C(=O)CCC6C5)nc(OCC56CCCN5CC(F)C6)nc4c3F)c12 (stereo not drawn) [Compound 490] | 1000 to 10000 |
| CCN(c1nc(OC[C@@]23CCCN2C[C@H](F)C3)nc2c(F)c(-c3ccc(F)c4sc(N)c(C#N)c34)c(C(F)(F)F)cc12)[C@H]1CC(=O)N(C2CC2)C1 [Compound 496] | 1000 to 10000 |
| CN(C)C(=O)[C@H]1CC[C@@H](N(C)c2nc(OC[C@@]34CCCN3C[C@H](F)C4)nc3c(F)c(-c4ccc(F)c5sc(N)c(C#N)c45)c(C(F)(F)F)cc23)C1 [Compound 497] | 1000 to 10000 |
| CN1CC(F)(F)C[C@H]1COc1nc(N2CC3CC(C2)O3)c2cc(C(F)(F)F)c(-c3ccc(F)c4sc(N)c(C#N)c34)c(F)c2n1 [Compound 498] | > 10000 |

The molecules below were run against T3, Avi-KRAS G12V (1-169) GppNHp/RAF1 RBD-3xFLAG (52-151) (Homo sapiens, UniProt P01116, G12V) (assay: Raf1-KRAS G12V-GppNHP disruption HTRF assay (Biological Example 1)). Conditions: KRAS G12V-GppNHp/RAF1 RBD HTRF.
T3 construct: Avi-KRAS G12V (1-169)
T3 sequence (P01116 1-169 isoform P01116-2 G12V): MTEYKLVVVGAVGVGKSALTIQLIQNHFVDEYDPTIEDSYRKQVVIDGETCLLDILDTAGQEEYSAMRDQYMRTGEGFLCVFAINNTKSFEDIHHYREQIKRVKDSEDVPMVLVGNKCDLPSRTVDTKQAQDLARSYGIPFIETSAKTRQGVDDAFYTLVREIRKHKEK
Type: binding
In short: as §1

| SMILES | IC50 [nM] |
| --- | --- |
| CCN(c1nc(OC[C@@]23CCCN2C[C@H](F)C3)nc2c(F)c(-c3ccc(F)c4sc(N)c(C#N)c34)c(C(F)(F)F)cc12)[C@@H]1CCN(C(=O)N(C)C)[C@@H]1C [Compound 488] | 100 to 1000 |
| CCN(c1nc(OC[C@@]23CCCN2C[C@H](F)C3)nc2c(F)c(-c3ccc(F)c4sc(N)c(C#N)c34)c(C(F)(F)F)cc12)[C@@H]1CCN(C(=O)OC)[C@@H]1C [Compound 489] | 100 to 1000 |
| N#Cc1c(N)sc2c(F)ccc(-c3c(C(F)(F)F)cc4c(N5CCCN6C(=O)CCC6C5)nc(OCC56CCCN5CC(F)C6)nc4c3F)c12 (stereo not drawn) [Compound 490] | 1000 to 10000 |
| CCN(c1nc(OC[C@@]23CCCN2C[C@H](F)C3)nc2c(F)c(-c3ccc(F)c4sc(N)c(C#N)c34)c(C(F)(F)F)cc12)[C@H]1CC(=O)N(C2CC2)C1 [Compound 496] | 1000 to 10000 |
| CN(C)C(=O)[C@H]1CC[C@@H](N(C)c2nc(OC[C@@]34CCCN3C[C@H](F)C4)nc3c(F)c(-c4ccc(F)c5sc(N)c(C#N)c45)c(C(F)(F)F)cc23)C1 [Compound 497] | 1000 to 10000 |
| CN1CC(F)(F)C[C@H]1COc1nc(N2CC3CC(C2)O3)c2cc(C(F)(F)F)c(-c3ccc(F)c4sc(N)c(C#N)c34)c(F)c2n1 [Compound 498] | > 10000 |

What follows are molecules tested against T4, Avi-KRAS WT (1-169) GppNHp/RAF1 RBD-3xFLAG (52-151) (Homo sapiens, UniProt P01116) (assay: Raf1-KRAS WT-GppNHP disruption HTRF assay (Biological Example 1)). Conditions: KRAS WT-GppNHp/RAF1 RBD HTRF.
T4 construct: Avi-KRAS WT (1-169)
T4 sequence (P01116 1-169 isoform P01116-2): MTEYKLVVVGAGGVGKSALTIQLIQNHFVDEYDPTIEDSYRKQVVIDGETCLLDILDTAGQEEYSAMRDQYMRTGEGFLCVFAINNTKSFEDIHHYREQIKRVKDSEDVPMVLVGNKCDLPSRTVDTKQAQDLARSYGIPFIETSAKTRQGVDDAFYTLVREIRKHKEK
Type: binding
In short: as §1

| SMILES | IC50 [nM] |
| --- | --- |
| CCN(c1nc(OC[C@@]23CCCN2C[C@H](F)C3)nc2c(F)c(-c3ccc(F)c4sc(N)c(C#N)c34)c(C(F)(F)F)cc12)[C@@H]1CCN(C(=O)N(C)C)[C@@H]1C [Compound 488] | 100 to 1000 |
| CCN(c1nc(OC[C@@]23CCCN2C[C@H](F)C3)nc2c(F)c(-c3ccc(F)c4sc(N)c(C#N)c34)c(C(F)(F)F)cc12)[C@@H]1CCN(C(=O)OC)[C@@H]1C [Compound 489] | 100 to 1000 |
| N#Cc1c(N)sc2c(F)ccc(-c3c(C(F)(F)F)cc4c(N5CCCN6C(=O)CCC6C5)nc(OCC56CCCN5CC(F)C6)nc4c3F)c12 (stereo not drawn) [Compound 490] | 1000 to 10000 |
| CCN(c1nc(OC[C@@]23CCCN2C[C@H](F)C3)nc2c(F)c(-c3ccc(F)c4sc(N)c(C#N)c34)c(C(F)(F)F)cc12)[C@H]1CC(=O)N(C2CC2)C1 [Compound 496] | 1000 to 10000 |
| CN(C)C(=O)[C@H]1CC[C@@H](N(C)c2nc(OC[C@@]34CCCN3C[C@H](F)C4)nc3c(F)c(-c4ccc(F)c5sc(N)c(C#N)c45)c(C(F)(F)F)cc23)C1 [Compound 497] | 1000 to 10000 |
| CN1CC(F)(F)C[C@H]1COc1nc(N2CC3CC(C2)O3)c2cc(C(F)(F)F)c(-c3ccc(F)c4sc(N)c(C#N)c34)c(F)c2n1 [Compound 498] | > 10000 |

What follows are molecules tested on GP2d cells (KRAS G12D) (assay: Cell-based pERK HTRF assay in GP2d cell (Biological Example 2)). Conditions: GP2d (KRAS G12D) cells, pERK HTRF.
In short: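 GP2d (KRAS G12D) cells were plated in DMEM/10% FBS and treated the next day for 60 min with compounds. Dosing used 9-point half-log series starting at 1 μM or 100 nM in 0.25% DMSO. Lysates were read by HTRF pERK (d2/Eu cryptate antibodies) after 4–24 h at room temperature, with excitation at 320 nm and emission at 615 nm.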

| SMILES | IC50 [nM] |
| --- | --- |
| N#Cc1c(N)sc2c(F)ccc(-c3c(C(F)(F)F)cc4c(N5CCCN6C(=O)CCC6C5)nc(OCC56CCCN5CC(F)C6)nc4c3F)c12 (stereo not drawn) [Compound 490] | 100 to 1000 |

Same assay, conditions: GP2d, GP2d (KRAS G12D) cells, pERK HTRF

| SMILES | IC50 [nM] |
| --- | --- |
| CCN(c1nc(OC[C@@]23CCCN2C[C@H](F)C3)nc2c(F)c(-c3ccc(F)c4sc(N)c(C#N)c34)c(C(F)(F)F)cc12)[C@@H]1CCN(C(=O)N(C)C)[C@@H]1C [Compound 488] | < 100 |
| CCN(c1nc(OC[C@@]23CCCN2C[C@H](F)C3)nc2c(F)c(-c3ccc(F)c4sc(N)c(C#N)c34)c(C(F)(F)F)cc12)[C@@H]1CCN(C(=O)OC)[C@@H]1C [Compound 489] | < 100 |
| CCN(c1nc(OC[C@@]23CCCN2C[C@H](F)C3)nc2c(F)c(-c3ccc(F)c4sc(N)c(C#N)c34)c(C(F)(F)F)cc12)[C@H]1CC(=O)N(C2CC2)C1 [Compound 496] | < 100 |
| CN(C)C(=O)[C@H]1CC[C@@H](N(C)c2nc(OC[C@@]34CCCN3C[C@H](F)C4)nc3c(F)c(-c4ccc(F)c5sc(N)c(C#N)c45)c(C(F)(F)F)cc23)C1 [Compound 497] | < 100 |
| CN1CC(F)(F)C[C@H]1COc1nc(N2CC3CC(C2)O3)c2cc(C(F)(F)F)c(-c3ccc(F)c4sc(N)c(C#N)c34)c(F)c2n1 [Compound 498] | > 1000 |

Each molecule was assayed on SW620 cells (KRAS G12V) (assay: Cell-based pERK HTRF assay in SW620 cell (Biological Example 4)). Conditions: Homo sapiens, SW-620, SW620 (KRAS G12V) cells, pERK HTRF.
In short: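 Read-out: HTRF pERK signal (excitation 320 nm, emission 615 nm) from lysates of SW620 cells after 4 h compound exposure. Dose range was 9 points, half-log steps from 1 μM, in 0.25% DMSO; antibody incubation ran 4–24 h at room temperature.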

| SMILES | IC50 [nM] |
| --- | --- |
| CCN(c1nc(OC[C@@]23CCCN2C[C@H](F)C3)nc2c(F)c(-c3ccc(F)c4sc(N)c(C#N)c34)c(C(F)(F)F)cc12)[C@@H]1CCN(C(=O)N(C)C)[C@@H]1C [Compound 488] | < 100 |
| CCN(c1nc(OC[C@@]23CCCN2C[C@H](F)C3)nc2c(F)c(-c3ccc(F)c4sc(N)c(C#N)c34)c(C(F)(F)F)cc12)[C@@H]1CCN(C(=O)OC)[C@@H]1C [Compound 489] | < 100 |
| CCN(c1nc(OC[C@@]23CCCN2C[C@H](F)C3)nc2c(F)c(-c3ccc(F)c4sc(N)c(C#N)c34)c(C(F)(F)F)cc12)[C@H]1CC(=O)N(C2CC2)C1 [Compound 496] | 100 to 1000 |
| CN(C)C(=O)[C@H]1CC[C@@H](N(C)c2nc(OC[C@@]34CCCN3C[C@H](F)C4)nc3c(F)c(-c4ccc(F)c5sc(N)c(C#N)c45)c(C(F)(F)F)cc23)C1 [Compound 497] | < 100 |
| CN1CC(F)(F)C[C@H]1COc1nc(N2CC3CC(C2)O3)c2cc(C(F)(F)F)c(-c3ccc(F)c4sc(N)c(C#N)c34)c(F)c2n1 [Compound 498] | > 1000 |

Same assay, conditions: SW620 (KRAS G12V) cells, pERK HTRF

| SMILES | IC50 [nM] |
| --- | --- |
| N#Cc1c(N)sc2c(F)ccc(-c3c(C(F)(F)F)cc4c(N5CCCN6C(=O)CCC6C5)nc(OCC56CCCN5CC(F)C6)nc4c3F)c12 (stereo not drawn) [Compound 490] | 100 to 1000 |
